Data from ChEMBL document CHEMBL3885881, “DrugMatrix”.
Several values for one entry are separate records, joined by “and”; a condition that tells them apart may be missing. Equal entries are not always repeated.

Species: Rattus norvegicus
Assay: DrugMatrix - Regimen: Daily Repeat
Type: toxicity, organism-based, Sprague-Dawley
Parameters: regimen Daily Repeat, gender Male, age 6-8 weeks
Conditions: in vivo, ip, route intraperitoneal, vehicle 100 % SALINE; for ABSOLUTE BASOPHIL / ABSOLUTE EOSINOPHIL / ABSOLUTE LYMPHOCYTE / ABSOLUTE MONOCYTE / BASOPHIL / EOSINOPHIL / ERYTHROCYTE COUNT / HEMATOCRIT / HEMOGLOBIN / LEUKOCYTE COUNT / LYMPHOCYTE / MEAN CORPUSCULAR HEMOGLOBIN / MEAN CORPUSCULAR HEMOGLOBIN CONCENTRATION / MEAN CORPUSCULAR VOLUME / MONOCYTE / NEUTROPHIL / PLATELET COUNT: tissue Blood; for ALANINE AMINOTRANSFERASE / ALBUMIN / ALKALINE PHOSPHATASE / ASPARTATE AMINOTRANSFERASE / BLOOD UREA NITROGEN / CARBON DIOXIDE / CHOLESTEROL / CREATININE / GLUCOSE / LACTATE DEHYDROGENASE / LIPASE / PHOSPHORUS / POTASSIUM / SODIUM / TOTAL BILIRUBIN / URIC ACID / CHLORIDE: tissue Plasma
[1] = 0 mg/kg, 120 h, dose level Control, time 5 day
[2] = 0 mg/kg, […], dose level Control, time 14 day
[3] = 0 mg/kg, […], dose level Control, time 28 day
[4] = 0.5 mg/kg, 120 h, dose level High, time 5 day
[5] = 0.5 mg/kg, […], dose level High, time 14 day
[6] = 0.5 mg/kg, […], dose level High, time 28 day

CISPLATIN
ABSOLUTE BASOPHIL [1]: 32 cells/µL | ABSOLUTE EOSINOPHIL [1]: 110 cells/µL | ABSOLUTE LYMPHOCYTE [1]: 6630 cells/µL | ABSOLUTE MONOCYTE [1]: 140 cells/µL | BASOPHIL [1]: 0.38% and 0.35% | EOSINOPHIL [1]: 1.28% and 0.62% | ERYTHROCYTE COUNT [1]: 7.45 x10E6/uL and 7.26 x10E6/uL | HEMATOCRIT [1]: 45.74% and 47.97% | HEMOGLOBIN [1]: 14.72 G/DL and 15.38 G/DL | LEUKOCYTE COUNT [1]: 8.11 x10E3/uL and 8.68 x10E3/uL | LYMPHOCYTE [1]: 81.3% and 86.77% | MEAN CORPUSCULAR HEMOGLOBIN [1]: 19.76 pg and 21.18 pg | MEAN CORPUSCULAR HEMOGLOBIN CONCENTRATION [1]: 32.16 G/DL and 32.05 G/DL | MEAN CORPUSCULAR VOLUME [1]: 61.38 fL and 66.15 fL | MONOCYTE [1]: 1.76% and 1.57% | NEUTROPHIL [1]: 14.9% and 9.53% | PLATELET COUNT [1]: 1322.4 x10E3/uL and 1786 x10E3/uL | ALANINE AMINOTRANSFERASE [1]: 25.8 u/L and 20.5 u/L | ALBUMIN [1]: 3.64 G/DL and 4.35 G/DL | ALKALINE PHOSPHATASE [1]: 300 u/L | ASPARTATE AMINOTRANSFERASE [1]: 81.4 u/L and 86.75 u/L | BLOOD UREA NITROGEN [1]: 14.4 mg/dL and 17 mg/dL | CARBON DIOXIDE [1]: 29 mmol/L | CHOLESTEROL [1]: 69.2 mg/dL and 51.25 mg/dL | CREATININE [1]: 0.56 mg/dL and 0.47 mg/dL | GLUCOSE [1]: 125.4 mg/dL and 128.75 mg/dL | LACTATE DEHYDROGENASE [1]: 105.4 u/L and 145 u/L | LIPASE [1]: 22.4 u/L and 13.25 u/L | PHOSPHORUS [1]: 11.8 mg/dL | POTASSIUM [1]: 5.52 MEQ/L and 6.58 MEQ/L | SODIUM [1]: 147 MEQ/L and 151 MEQ/L | TOTAL BILIRUBIN [1]: 0.2 mg/dL and 0.33 mg/dL | URIC ACID [1]: 1.06 mg/dL and 1.95 mg/dL | ABSOLUTE BASOPHIL [2]: 130 cells/µL | ABSOLUTE EOSINOPHIL [2]: 140 cells/µL | ABSOLUTE LYMPHOCYTE [2]: 13500 cells/µL | ABSOLUTE MONOCYTE [2]: 400 cells/µL | HEMATOCRIT [2]: 45.98% | HEMOGLOBIN [2]: 15.17 G/DL | MEAN CORPUSCULAR VOLUME [2]: 59.4 fL | NEUTROPHIL [2]: 14.14% | ABSOLUTE BASOPHIL [3]: 91 cells/µL | ABSOLUTE EOSINOPHIL [3]: 110 cells/µL | ABSOLUTE LYMPHOCYTE [3]: 9910 cells/µL | ABSOLUTE MONOCYTE [3]: 210 cells/µL | BASOPHIL [3]: 0.77% | EOSINOPHIL [3]: 0.92% | ERYTHROCYTE COUNT [3]: 8.21 x10E6/uL | HEMATOCRIT [3]: 47.53% | HEMOGLOBIN [3]: 15.65 G/DL | LEUKOCYTE COUNT [3]: 11.91 x10E3/uL | LYMPHOCYTE [3]: 83.34% | MEAN CORPUSCULAR HEMOGLOBIN [3]: 19.07 pg | MEAN CORPUSCULAR HEMOGLOBIN CONCENTRATION [3]: 32.93 G/DL | MEAN CORPUSCULAR VOLUME [3]: 57.9 fL | MONOCYTE [3]: 1.68% | NEUTROPHIL [3]: 12.97% | PLATELET COUNT [3]: 1323.8 x10E3/uL | ALBUMIN [2]: 3.66 G/DL | CARBON DIOXIDE [2]: 25 mmol/L | CHLORIDE [2]: 107 MEQ/L | SODIUM [2]: 149.2 MEQ/L | URIC ACID [2]: 0.94 mg/dL | ALANINE AMINOTRANSFERASE [3]: 30 u/L | ALBUMIN [3]: 3.71 G/DL | ALKALINE PHOSPHATASE [3]: 186.8 u/L | ASPARTATE AMINOTRANSFERASE [3]: 78.2 u/L | BLOOD UREA NITROGEN [3]: 14.2 mg/dL | CHOLESTEROL [3]: 44.9 mg/dL | CREATININE [3]: 0.6 mg/dL | GLUCOSE [3]: 147.2 mg/dL | LACTATE DEHYDROGENASE [3]: 123.1 u/L | LIPASE [3]: 9.6 u/L | PHOSPHORUS [3]: 10.01 mg/dL | POTASSIUM [3]: 6.57 MEQ/L | SODIUM [3]: 149.5 MEQ/L | TOTAL BILIRUBIN [3]: 0.21 mg/dL | URIC ACID [3]: 1.26 mg/dL | ABSOLUTE BASOPHIL [4]: 26 cells/µL | ABSOLUTE EOSINOPHIL [4]: 92 cells/µL | ABSOLUTE LYMPHOCYTE [4]: 5270 cells/µL | ABSOLUTE MONOCYTE [4]: 150 cells/µL | BASOPHIL [4]: 0.36% and 0.28% | EOSINOPHIL [4]: 1.46% and 0.85% | ERYTHROCYTE COUNT [4]: 7.52 x10E6/uL and 7.82 x10E6/uL | HEMATOCRIT [4]: 46.92% and 52.02% | HEMOGLOBIN [4]: 16.7 G/DL | LEUKOCYTE COUNT [4]: 6.24 x10E3/uL and 6.92 x10E3/uL | LYMPHOCYTE [4]: 84.62% and 88.4% | MEAN CORPUSCULAR HEMOGLOBIN [4]: 20.1 pg and 21.33 pg | MEAN CORPUSCULAR HEMOGLOBIN CONCENTRATION [4]: 32.2 G/DL and 32.05 G/DL | MEAN CORPUSCULAR VOLUME [4]: 66.5 fL | MONOCYTE [4]: 2.36% and 1.6% | NEUTROPHIL [4]: 10.88% and 7.72% | PLATELET COUNT [4]: 1593.2 x10E3/uL and 1552.25 x10E3/uL | ALANINE AMINOTRANSFERASE [4]: 25 u/L and 19.25 u/L | ALBUMIN [4]: 3.66 G/DL and 4.4 G/DL | ALKALINE PHOSPHATASE [4]: 215.2 u/L and 294.25 u/L | ASPARTATE AMINOTRANSFERASE [4]: 75.2 u/L and 87.5 u/L | BLOOD UREA NITROGEN [4]: 13.8 mg/dL and 15 mg/dL | CARBON DIOXIDE [4]: 25.25 mmol/L | CHLORIDE [4]: 106.6 MEQ/L and 107.25 MEQ/L | CHOLESTEROL [4]: 54.4 mg/dL and 68 mg/dL | CREATININE [4]: 0.54 mg/dL and 0.5 mg/dL | GLUCOSE [4]: 136.8 mg/dL and 138.75 mg/dL | LIPASE [4]: 26.8 u/L and 10 u/L | POTASSIUM [4]: 5.54 MEQ/L and 5.67 MEQ/L | SODIUM [4]: 146.2 MEQ/L and 152.25 MEQ/L | TOTAL BILIRUBIN [4]: 0.18 mg/dL and 0.43 mg/dL | URIC ACID [4]: 1.34 mg/dL and 2.38 mg/dL | ABSOLUTE BASOPHIL [5]: 36 cells/µL | ABSOLUTE EOSINOPHIL [5]: 56 cells/µL | ABSOLUTE LYMPHOCYTE [5]: 7470 cells/µL | ABSOLUTE MONOCYTE [5]: 180 cells/µL | MEAN CORPUSCULAR HEMOGLOBIN [5]: 19.97 pg | ABSOLUTE BASOPHIL [6]: 87.8 cells/µL | ABSOLUTE EOSINOPHIL [6]: 85.6 cells/µL | ABSOLUTE LYMPHOCYTE [6]: 8670 cells/µL | ABSOLUTE MONOCYTE [6]: 180 cells/µL | BASOPHIL [6]: 0.8% | EOSINOPHIL [6]: 0.83% | ERYTHROCYTE COUNT [6]: 9.05 x10E6/uL | HEMATOCRIT [6]: 52.96% | HEMOGLOBIN [6]: 17.03 G/DL | LEUKOCYTE COUNT [6]: 10.42 x10E3/uL | LYMPHOCYTE [6]: 83.03% | MEAN CORPUSCULAR HEMOGLOBIN [6]: 18.84 pg | MEAN CORPUSCULAR HEMOGLOBIN CONCENTRATION [6]: 32.23 G/DL | MEAN CORPUSCULAR VOLUME [6]: 58.53 fL | MONOCYTE [6]: 1.62% | NEUTROPHIL [6]: 13.3% | PLATELET COUNT [6]: 1272.33 x10E3/uL | ALBUMIN [5]: 3.38 G/DL | CARBON DIOXIDE [5]: 22.25 mmol/L | CHLORIDE [5]: 111.6 MEQ/L | ALANINE AMINOTRANSFERASE [6]: 30.78 u/L
